Test results as given in US9751851B2, “Molecules and compositions that inhibit gram negative bacteria and their uses” (THE TRUSTEES OF PRINCETON UNIVERSITY, priority 2013, dated 2017).

Key:
P. aeruginosa PA14 [1] = experiment: Microfluidic flow cell clogging (time until clogging); type: cell-based; conditions: wild-type P. aeruginosa PA14, 100 μM mBTL
Protocol: Microfluidic Flow Cells. Methods. Overnight P. aeruginosa PA14 cultures were back-diluted 1:1000 into 800 mL of tryptone broth (1% tryptone in H2O) with or without 100 μM mBTL and grown to mid-logarithmic phase (OD600=0.5). These cultures were used to fill 100 mL reservoirs that fed into microfluidic flow channels via Tygon tubing with an inner diameter of 2.4 mm. Similar tubing connected the outlet of the microfluidic channel to a collection dish on an analytical balance controlled via LabVIEW. The elevation of the culture reservoir above the collection dish on the balance set the constant pressure difference that drove the flow through the microfluidic channel. The microfluidic channel is 200 μm wide, 90 μm high, and contains a sequence of 37 bends that mimic corners in porous materials. The weight of the effluent culture was measured as a function of time t with measurement intervals of 4 s, and the data were converted into a flow rate Q(t) via the equation
[formula] where Δt=30 s and the density is assumed to be that of water, 1 kg/L. To the resulting flow rate time series Q(t), the function
[formula] was fitted which yields the measurement of the time until clogging (corresponding to the time at which the flow rate declined to 50% of its baseline value Q0).

P. aeruginosa PA14 [2] = experiment: Static culture biofilm thickness by confocal microscopy; type: cell-based
Protocol: Static culture. Methods. Overnight P. aeruginosa cultures were back-diluted 1:1000 into tryptone broth with 100 μM mBTL, or an equivalent concentration of DMSO, and grown to mid-logarithmic phase (OD600=0.5). A 96-well plate with glass bottom (Thermo Fisher), which was filled with 200 μL of tryptone broth containing 100 μM mBTL or DMSO, was then inoculated with 2 μL of the mid-logarithmic culture. The 96-well plates were incubated for 24 h, prior to adding 5 μM SYTO 9 nucleic acid stain (Invitrogen). Biofilm thickness was measured using confocal microscopy (Nikon).

LasR = molecular target: T1, LasR (Pseudomonas aeruginosa, UniProt P25084); experiment: LasR-GFP assay (rsaL-gfp reporter in recombinant E. coli); type: cell-based, P. aeruginosa
T1 construct: expressed in transfected cells; host or cells: E. coli BL21-Gold (DE3) carrying pET23b-lasR
Protocol: Methods. The LasR-GFP assays were performed in E. coli strain BL21 DE3 Gold (Agilent) carrying pET23b (Novagen) containing lasR (maintained with 100 μg/mL ampicillin) and carrying plasmid pEVS141 (31) containing the rsaL promoter driving expression of gfp (maintained with […] of kanamycin.) The RhlR-GFP assays were performed in E. coli strain BL21 DE3 Gold (Agilent) carrying pET23b (Novagen) containing rhlR (maintained with 100 μg/mL ampicillin) and carrying plasmid pEVS141 containing the rhlA promoter driving expression of gfp (maintained with 50 μg/mL of kanamycin.) These E. coli strains were grown overnight and subcultured into fresh medium with appropriate antibiotics at a 1:100 dilution and grown shaking for 8 hr at 37° C. for the LasR-GFP strain and 12 hr for the RhlR-GFP construct. 50 nM 3OC12-HSL or 20 μM C4-HSL was added to the LasR-GFP and RhlR-GFP preparations, respectively. Compounds were tested at 1 mM for antagonism and at 100 nM or 20 μM for agonism. These concentrations were chosen for agonism studies to match the concentrations of autoinducers used in the experiments. For antagonism studies, the EC95 concentration was used for each receptor. GFP was measured on an Envision plate reader.
The LasR-GFP assays were performed in E. coli strain BL21 DE3 Gold (Agilent) carrying pET23b (Novagen) containing lasR (maintained with 100 μg/mL ampicillin) and carrying plasmid pEVS141 (31) containing the rsaL promoter driving expression of gfp (maintained with 50 μg/mL of kanamycin.) The RhlR-GFP assays were performed in E. coli strain BL21 DE3 Gold (Agilent) carrying pET23b (Novagen) containing rhlR (maintained with 100 μg/mL ampicillin) and carrying plasmid pEVS141 (31) containing the rhlA promoter driving expression of gfp (maintained with 50 μg/mL of kanamycin.) These E. coli strains were grown overnight and subcultured into fresh medium with appropriate antibiotics at a 1:100 dilution and grown shaking for 8 hr at 37° C. for the LasR-GFP strain and 12 hr for the RhlR-GFP construct. 50 nM 3OC12-HSL or 20 μM C4-HSL was added to the LasR-GFP and RhlR-GFP preparations, respectively. Compounds were tested at 1 mM for antagonism and at 100 nM or 20 μM for agonism. These concentrations were chosen for agonism studies to match the concentrations of autoinducers used in our experiments. For antagonism studies, we used the EC95 concentration for each receptor. GFP was measured on an Envision plate reader.

T1 sequence (P25084 whole entry): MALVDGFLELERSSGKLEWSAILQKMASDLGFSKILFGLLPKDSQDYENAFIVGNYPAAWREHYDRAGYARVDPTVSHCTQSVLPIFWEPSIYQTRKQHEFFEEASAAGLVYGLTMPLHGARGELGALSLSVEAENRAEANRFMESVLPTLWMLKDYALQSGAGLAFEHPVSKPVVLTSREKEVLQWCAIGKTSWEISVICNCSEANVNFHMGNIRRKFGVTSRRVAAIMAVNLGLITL

Substance: meta-bromothiolactone [mBTL]
- clogging of microfluidic chambers (P. aeruginosa PA14 [1]): phenotype indistinguishable from the mutants
- average biofilm height (P. aeruginosa PA14 [2]; lasR null strain, 100 μM mBTL (untreated 15.7+/−4.9)): 6.6+/−2.3 μm
- average biofilm height (P. aeruginosa PA14 [2]; lasR, rhlR double null strain, 100 μM mBTL (untreated 11.9+/−5.5)): 16.2+/−5.9 μm
- average biofilm height (P. aeruginosa PA14 [2]; rhlR null strain, 100 μM mBTL (untreated 25+/−10.6)): 22.1+/−7.5 μm
- average biofilm height (P. aeruginosa PA14 [2]; wild-type, 100 μM mBTL, 24 h (untreated 27.5+/−11.5)): 10+/−4 μm
- inhibition of LasR activation of rsaL-gfp (antagonism) (LasR; mBTL at 1 mM, 3OC12-HSL at EC95): 22%
- LasR partial agonism (gfp expression, cognate autoinducer = 100%) (LasR; no autoinducer, compound at 100 nM): 72%
